# Results published in ChEMBL document CHEMBL4834478, “Synthesis and biological evaluation of novel 1,4-benzodiazepin-3-one derivatives as potential antitumor agents against prostate cancer” (Bioorg Med Chem, 2021).
# Activity calls are given as the source filed them. The rule behind the calls is not given here.
# Key:
# [1] = system: PC-3; experiment: Antiproliferative activity against human PC3 cells assessed as inhibition of cell growth measured after 72 hrs by MTT assay; format: functional
# [2] = Metabolic stability in human liver microsomes assessed as compound degradation at 10 uM measured after 15 mins by HPLC method; format: ADME, Microsome; settings: read-out: Drug degradation
# [3] = Metabolic stability in human liver microsomes assessed as compound degradation at 10 uM measured after 30 mins by HPLC method; format: ADME, Microsome; settings: read-out: Drug degradation
# [4] = system: PC-3; experiment: Antiproliferative activity against human PC3 cells assessed as inhibition of cell proliferation at 2 uM measured after 48 hrs by MTT assay; format: functional, cell-based
# [5] = system: OVCAR-3; experiment: Antiproliferative activity against human OVCAR-3 cells assessed as inhibition of cell proliferation at 2 uM measured after 48 hrs by MTT assay; format: functional, cell-based
# [6] = system: PANC-1; experiment: Antiproliferative activity against human PANC-1 cells assessed as inhibition of cell proliferation at 2 uM measured after 48 hrs by MTT assay; format: functional, cell-based
# [7] = system: OVCAR-3; experiment: Antiproliferative activity against human OVCAR-3 cells assessed as inhibition of cell proliferation at 15 uM measured after 48 hrs by MTT assay; format: functional, cell-based
# [8] = system: PANC-1; experiment: Antiproliferative activity against human PANC-1 cells assessed as inhibition of cell proliferation at 15 uM measured after 48 hrs by MTT assay; format: functional, cell-based
# [9] = system: PC-3; experiment: Antiproliferative activity against human PC3 cells assessed as cellular metabolic activity at 15 uM measured after 48 hrs by MTT assay; format: functional
# [10] = system: DU-145; experiment: Antiproliferative activity against human DU-145 cells assessed as inhibition of cell proliferation measured after 72 hrs by MTT assay; format: functional, cell-based
# [11] = system: LNCaP; experiment: Antiproliferative activity against human LNCaP cells assessed as inhibition of cell proliferation measured after 72 hrs by MTT assay; format: functional, cell-based
# [12] = system: LAPC4; experiment: Antiproliferative activity against human LAPC4 cells assessed as inhibition of cell proliferation measured after 72 hrs by MTT assay; format: functional, cell-based
# [13] = system: RPTEC; experiment: Cytotoxicity against human RPTEC cells assessed as inhibition of cell proliferation measured after 72 hrs by MTT assay; format: cell-based
# [14] = system: PC-3; experiment: Induction of apoptosis in human PC-3 cells assessed as increase in Caspase-3 activity using Z-Asp-Glu-Val-Asp-AMC peptide as substrate at 10 uM measured after 24 to 48 hrs by based flourimetric assay; format: functional, cell-based; settings: time 24-48 hrs
# [15] = system: PC-3; experiment: Antitumour activity against human PC-3 cells xenografted in chick chorioallantoic membrane assessed as inhibition of tumour growth at 10 ug, iv measured after 7 days; format: functional; settings: dose 10 µg; time 7 day
# [16] = system: PC-3; experiment: Antitumour activity against human PC-3 cells xenografted in chick chorioallantoic membrane assessed as inhibition of tumour growth at 50 ug, iv measured after 7 days; format: functional; settings: dose 50 µg; time 7 day
# [17] = Toxicity in chick embryo assessed as embryo weight at 10 to 50 ug, iv measured after 7 days; format: organism-based, Gallus gallus; settings: chicken, in vivo, 168 h, dose 10-50 µg, time 7 day
# [18] = system: PC-3; experiment: Antiproliferative activity against human PC3 cells assessed as inhibition of cell proliferation at 15 uM measured after 48 hrs by MTT assay; format: functional, cell-based
GI50 [1],"metabolised at 0.25 h, 10 µM [2]","metabolised at 0.5 h, 10 µM [3]",Compound,Activity [4],Activity [5],Activity [6],Activity [7],Activity [8],Activity [9],Activity [10],Activity [11],Activity [12],Activity [13],Activity [14],TGI [15],TGI [16],Activity [17],Activity [18]
10.8 µM,26%,41%,CC(C)(C)NC(=O)[C@H]1c2cc([N+](=O)[O-])ccc2N[C@@H](Cc2ccccc2)C(=O)N1Cc1ccccc1,–,–,–,–,–,–,–,–,–,–,–,–,–,–,–
7 µM,41%,50%,CC(C)(C)NC(=O)[C@@H]1c2cc([N+](=O)[O-])ccc2N[C@@H](Cc2ccccc2)C(=O)N1Cc1ccccc1,–,–,–,–,–,–,–,–,–,–,–,–,–,–,–
10.2 µM,–,–,CC(C)(C)NC(=O)C1c2cc([N+](=O)[O-])ccc2N[C@@H](Cc2ccccc2)C(=O)N1Cc1ccccc1 (mixture of isomers),inactive,inactive,inactive,Active,inactive,30%,inactive,inactive,inactive,Non-Toxic,Active,45%,53%,Non-Toxic,–
–,–,–,CC(C)C[C@@H]1Nc2ccc([N+](=O)[O-])cc2C(C(=O)NC(C)(C)C)N(Cc2ccc3c(c2)OCO3)C1=O (mixture of isomers),inactive,inactive,inactive,Active,inactive,–,–,–,–,–,–,–,–,–,Active
–,–,–,CC(C)C[C@@H]1Nc2ccc([N+](=O)[O-])cc2C(C(=O)NC(C)(C)C)N(Cc2ccccc2)C1=O (mixture of isomers),inactive,inactive,inactive,Active,inactive,–,–,–,–,–,–,–,–,–,Active
